Earlier results as cited in patent US20100143460A1, “SOLID DOSAGE FORMS COMPRISING ALISKIREN AND PHARMACEUTICALLY ACCEPTABLE SALTS THEREOF” (KRKA, TOVARNA ZDRAVIL, D.D., NOVO MESTO, priority 2007, published 2010).

Settings: described in EP-A-1 517 682

- solubility in water: very readily soluble in water
Structure (SMILES): COCCCOc1cc(C[C@@H](C[C@H](N)[C@@H](O)C[C@H](C(=O)NCC(C)(C)C(N)=O)C(C)C)C(C)C)ccc1OC [aliskiren]
